In data set [1] the test system is MEC1 cells. Kind of data set: MEC1 xenograft in NRG mice, tumor burden by human CD19+ cells (flow cytometry). Type of data set: in vivo. As for the experimental part: (§1) To test that hypothesis, the two cell lines were tested for 2DG sensitivity in vivo: immunodeficient NOD.Cg-Rag1^tm1MomIl2rg^tm1Wjl/SzJ (NRG™) mice were xenografted with either MEC1 or CCRF-SB cells, and the mice were then treated with 200 μL of 600 mM 2DG or glucose I.P. three times per week for two weeks. Both MEC1 and CCRF-SB cells migrate to the spleen and bone marrow, and since these mice […] CD19+ B-cells, the tumor burden can be measured terminally in these organs by anti-human CD19 staining via flow cytometry after euthanasia at the end of the treatment period.
Because DIDS was effective in reducing numbers of MEC1 B-cells ex vivo, its effectiveness was tested in vivo. […] MEC1 cells were xenografted into immunodeficient NRG™ mice for two weeks, and mice were then treated either with DIDS at 50 mg/kg or with a 0.1 M potassium bicarbonate/PBS vehicle, once per week for an additional two weeks. NRG™ mice were used because they were deficient in CD19 cells, allowing quantification of MEC1 B-cells by staining spleen cells for human CD19, as the spleen is a homing organ for MEC1 B-cells, all of which are positive for CD19.
Mice were treated I.P. three times weekly for two weeks. 1) mice were dosed I.P. with 10 mg/kg DIDS, a fifth of the dose required to elicit an effect in vivo (FIG. 4D); 2) mice were treated I.P. with 220 mg/kg of 2DG or glucose; a third of the dose of 2DG required for an effect (FIG. 3C); 3) mice were treated with both DIDS and 2DG, at the same doses used in the first two groups; 4) as a positive control, mice were treated with fludarabine, a compound frequently used to treat CLL, at 35 mg/kg, a dose commonly used to elicit an effect; and 5) as a negative control, mice were treated with vehicle consisting of glucose in PBS (41). Following the 2-week treatment period, bone marrow and spleens were assessed for tumor burden, by determining the percentages of human CD19-positive cells via flow cytometry (FIG. 5C).
(§2) Human cancer cell lines were xenografted into NRG mice in the following way: Cells grown in flasks were given fresh media the night before xenograftment and seeded at 10^6 cells per mL. The next day, the cells were washed twice with DPBS without calcium or magnesium and resuspended to 1-2×10^8 cells per mL of DPBS at room temperature and immediately injected via tail vein at 100 μL per mouse. The cells were given 7-10 days to fully xenograft, after which tumor load in the blood was assessed via flow cytometry (FACSCaliber II) for human CD19+ cells (Antibody cat no. 555413, BD Parmingen). Mice with similar tumor loads were assigned to different treatment groups to decrease bias and ensure more even tumor load across treatments. Mice were treated as described in the Results section for two weeks unless otherwise indicated. Upon euthanasia, the spleen and the bone marrow were harvested and stained for human CD19, and the cells were measured by flow cytometry on the FACSCaliber II. Analysis of the flow data was done by Flowjo version 8.8.7 (BD Pharmingen).
Xenografts were done as follows: NOD. Rag1−/− IL-2rg−/− (NRG) mice obtained from the Jackson Laboratory were xenografted for one to two weeks with Non Hogdkin's Leukemia CCRFSB, Chronic lymphocytic leukemia MEC1 cells or MEC1 cells carrying the luciferase gene (MEC1_LUC). Mice were then randomly assigned to treatment or vehicle cohort, and treated for two weeks.

The test system of the next data set is TM00921. Kind of data set: PDX lung carcinoma TM00921 xenografted in NSG mice, 2DG vs glucose. To be noted: 200 μL of 600 mM 2DG I.P. three times weekly, 4 weeks, glycolysis-dependent PDX. It is filed as in vivo, human. The source says:
(§3) The effects of 2DG in human lung carcinoma PDX (patient-derived xenograft) models were eventuated. While it is understood that 2DG primarily affects glycolysis, studies have shown that 2DG can interfere with other systems, such as the cell cycle, independently of its effects on metabolism (8, 32, 33). Changes in the cell cycle would affect the proliferation of cancer cells, and would ultimately influence tumor growth. To test whether 2DG affects glycolysis independently of proliferation, two PDX human lung carcinomas (TM00244 and TM00921) with similar growth kinetics (FIG. 2A) but differing in the use of glycolytic pathways (Table 1) were tested.
(§4) Tumors from these two carcinomas were xenografted into immunodeficient NOD.Scid.IL2R gamma null (NSG™) mice, and, after tumors of a measurable size (>50 mm^3) were observed, mice of each model were treated with 200 μL of either 600 mM 2DG or glucose three times weekly via I.P. injection.
(§5) Patient-derived xenograft (PDX) tumors were obtained from the JAX PDX Resource. Tumor fragments were minced separately and xenografted subcutaneously in an NSG mouse to establish P1. Upon growth of the tumor fragment, the tumor was harvested, minced, and xenografted in multiple mice to establish P2 mice. All experiments were conducted on P2 or higher mice that arose from engraftment from one of multiple tumor fragments.
In general terms: A xenograft is tissue or cells of one species grown in another, often human tumour cells in immunodeficient mice.

The subject of the next data set is CCRF-SB cells. Kind of data set: CCRF-SB xenograft in NRG mice, tumor burden by human CD19+ cells. It is filed as in vivo. To be noted: 200 μL of 600 mM 2DG I.P. three times per week for two weeks, vs glucose. As for the experimental part:
as §1
as §2, with “Mice with similar tumor loads were assigned to different treatment groups to decrease bias and ensure more even tumor load across treatments. Mice were treated as described in the Results section for two weeks unless otherwise indicated.” left out, “Analysis of the flow data was done by Flowjo version 8.8.7 (BD Pharmingen).” left out

The test system of a further data set is thymic lymphomas. Briefly: 2DG I.P. in Trp53−/− mouse model of thymic lymphoma. Type of data set: in vivo. As for the experimental part: Next, a more homogeneous and acute spontaneously arising lymphoma was tested. In addition, the extent to which 2DG could affect a purely T-cell lymphoma was tested. To meet all of these criteria, a classic mouse model of T-cell cancer, the p53-deficient mouse (31) was used. […] To test the effect of 2DG on these thymic lymphomas, […].

The subject of a further data set is TM00244. Kind of data set: PDX lung carcinoma TM00244 xenografted in NSG mice, 2DG vs glucose. It is filed as in vivo, human. The settings on record: 200 μL of 600 mM 2DG I.P. three times weekly, 4 weeks, glycolysis-independent PDX.
From the text: as §3, §4, §5

Data set [2] has as its system MEC1 cells. Briefly: Ex vivo growth/survival of MEC1 cells. To be noted: 2DG 0.2 mM alone, 48 hours. Type of data set: cell-based, human.
Data set [3] has as its system spontaneously arising lymphomas. Briefly: 2DG in drinking water, spontaneous lymphomas of SJL.CD8a−/− mice. Type of data set: in vivo, mouse. The source says:
To test the extent to which inhibition of glycolysis by 2DG alleviated these spontaneously arising lymphomas, a cohort of SJL.CD8a−/− female mice were aged to […] of age and were monitored for signs of lymphoma development. Visible growth was most evident in cervical lymph nodes and in some cases in spleens (indicated by arrows, FIG. 1A). Once tumors were sufficiently large to palpate, mice were placed on water with 6 g/L of dissolved 2DG provided ad libitum and monitored weekly for tumor reduction. […] Photographs of the tumors were taken weekly to document disease regression, and the time points, in weeks, at which the tumors visibly shrank or, later, reemerged, were recorded.
Female SJL.CD8a−/− mice were obtained from the Jackson Laboratory. Mice were aged and checked weekly for splenic or lymphatic tumors. […] Tumors were monitored and photographed weekly for signs of disease regression or progression.
SJL.CD8a−/− female mice were aged and monitored for signs of tumor development weekly after reaching 6 months of age. Tumors were found on mice in between 7 to 12 months of age. Once tumors had reached a clearly visible size, the mice were given water with 6 g/L of dissolved 2DG provided ad libitum. This concentration of 2DG in the water supplied the mice with a daily dose of approximately 960 mg/kg of 2DG. Mice were monitored weekly to determine changes in tumor mass. Photographs of the tumors were taken weekly to gauge whether the tumor was shrinking, expanding, or maintaining their size and to provide an estimate of the overall health of the mice. Treatments lasted for 11 weeks or until the tumors returned and mice became too sick to continue in the study. The treatment of one mouse was carried out to week 16 to determine what, if any, side effects would occur with prolonged 2DG exposure. […] Dates on which tumor shrinkage was observed, as well as dates on which tumor reemergence was observed, were recorded.

The mark [4] stands for this setting: 200 μL of 600 mM 2DG I.P. three times per week for two weeks, vs glucose.
Setting [5] is: one mouse, 2DG 6 g/L in water carried out to week 16.

Structures are written as SMILES.

Consider `OCC1O[C@H](O)C[C@@H](O)[C@@H]1O` (mixture of isomers) [2DG, 2-deoxy-D-glucose], for which the “tumor burden (% hCD19+) in bone marrow” value with MEC1 cells [1] (2DG alone 220 mg/kg I.P. three times weekly for two weeks) is “elicited as much effect as the combination treatment”. Moreover, in the data set with MEC1 cells [1] (setting [4]), the “tumor burden (human CD19+ cells) in bone marrow” value was “significant reductions in numbers” and the “tumor burden (human CD19+ cells) in spleen, sensitivity to 2DG” value was “those in the spleen did not”. In the data set with TM00921, the tumor volume result was “significantly smaller tumor volume”. The “tumor burden (human CD19+ cells) in spleens or bone marrow” value in the data set with CCRF-SB cells is reported as “no significant response to 2DG”. For the same compound, in the data set with thymic lymphomas (2DG 670 mg/kg I.P.), the “duration of inactivity upon injection” value fell in the range of 10 to 60 min. Besides, the “protection from developing neoplasms (survival curve)” value in the data set with thymic lymphomas (2DG 670 mg/kg I.P. three times weekly from 14 weeks of age for 10 weeks, vs glucose) is reported as “significantly protected from developing neoplasms”. The weight gain entry in the data set with thymic lymphomas (2DG 670 mg/kg I.P. three times weekly, vs glucose-treated mice) was “lower weight gain compared to glucose-treated mice, although the difference did not achieve significance”. Moreover, the tumor size result with TM00244 is “no difference in tumor size”. The “effect on MEC1 cell numbers” value in the data set with MEC1 cells [2] is listed as “does not have an effect on its own”. Besides, the “adverse side effects by gross observation (weight loss, lethargy, lack of grooming)” value in data set [3] (2DG 6 g/L in drinking water, at any time during treatment) is “no adverse side effects of this treatment were observed”. Further, the “time within which tumors returned” value in data set [3] (2DG 6 g/L in drinking water, despite continuation of treatment) is 5-11 weeks. Also, the “mice of the six responders in which tumors returned” value in data set [3] (2DG 6 g/L in drinking water, treatment continued) is “four”. For the same compound, the “treatment time at which tumor regression was evident” value in data set [3] (2DG 6 g/L in drinking water, N=7) was “two to three”. Also, the “appearance of greatly enlarged spleen (representative mouse)” value in data set [3] (FIG. 1A legend, 2DG 6 g/L in drinking water) is reported as “returned to normal appearance after two weeks of treatment”. Moreover, the “fraction of mice with tumor resurgence” value in data set [3] (FIG. 1B legend, after 5-11 weeks of 2DG treatment, N=7) was “approximately ¾”. In data set [3] (setting [5]), the “adverse effects with prolonged 2DG exposure” value is on record as “no adverse effects were noted” and the “tumor return under prolonged treatment” value is given as “This tumor never returned”.
